Laboratory results taken from patent US8202892B2, “Advanced glycation end products as active ingredients” (Henkel AG & Co. KGaA, priority 2007, dated 2012).

Legend:
Assay type in all cases: cell-based
KGF = experiment: Relative gene expression in reconstructed dermal papillae: KGF; conditions: 24 hours, untreated medium = 1.00
Description: (§1) Reconstructed dermal papillae as described in European patent 1 455 854 were systemically treated for 24 hours with each of the test substances listed in Table 7 in the cited concentrations. The relative gene expression profile was determined for the markers HGF and KGF (important markers of the anagen phase of the hair cycle) and TGF-beta 1, TGF-beta 2 and IGFBP3 (important markers of the catagen phase of the hair cycle). Expression for incubation with the untreated medium served as the reference; values presented in the Table illustrate the differential gene expression. A differential gene expression that is 1.66 times or greater than the absolute numerical value of the control gene expression is regarded as significant.

HGF = experiment: Relative gene expression in reconstructed dermal papillae: HGF; conditions: 24 hours, untreated medium = 1.00, 1.66 times or greater significant
Description: as §1

IGFBP3 = experiment: Relative gene expression in reconstructed dermal papillae: IGFBP3; conditions: 24 hours, untreated medium = 1.00
Description: as §1

TGF-beta 2 = experiment: Relative gene expression in reconstructed dermal papillae: TGF-beta 2; conditions: 24 hours, untreated medium = 1.00
Description: as §1

TGF-beta 1 = experiment: Relative gene expression in reconstructed dermal papillae: TGF-beta 1; conditions: 24 hours, untreated medium = 1.00
Description: as §1

[1] = system: markers of anagen and catagen phase of the hair cycle; experiment: Relative gene expression profile of the markers of the hair cycle (statements in words); conditions: 0.1 wt. %
Description: as §1

fibroblasts [2] = experiment: Relative vitality (cell activity) of cultivated fibroblasts, redox dye WST-1; conditions: untreated control = 100%
Description: Vitality of the cultivated cells was determined by means of redox dyes. These dyes penetrate into the cells and are reduced by electron capture at the external mitochondrial membrane. This reduction requires a color change that is subsequently photometrically analyzed. Vitality was quantified by setting the untreated control to 100% and the measured values of the samples treated with the substances were in reference to that figure. Cell damaging means a relative vitality of less than 80%, and cell activating means greater than or equal to 120%. Cell Proliferation Reagent Wst-1 (Roche Applied Science, Mannheim, Germany) was used for this test.

[3] = system: organo-typical cell cultures (reconstructed dermal papillae); experiment: ATP production, ATPLite-M luciferase assay; conditions: dermal papillae cells
Description: ATP determinations were made using the ATPLite™-M Assays (from Packard). The test principle of this assay is based on the fact that the lucerifase from Photinus pyralis catalyzes a reaction in which, in the presence of ATP, D-luciferin is converted to oxyluciferin. Green light is emitted in this reaction and can be measured with an illuminometer. The emitted bioluminescence light is proportional to the amount of ATP present. Determination of ATP activity is carried out in organo-typical cell cultures (reconstructed dermal papillae according to EP 1 455 854). Treatment with the substance mixture is carried out for 24 hours against an untreated control. The cells were then lysed with 100 μl/cavity of a lyse buffer contained in a test kit for 5 minutes on a shaker. The cells were then incubated an additional 5 minutes with 100 μl/cavity of the supplied substrate solution on the shaker, and the reaction mixture was subsequently transferred into a black microtitre plate. Luminescence was measured after an incubation time of 10 minutes in the dark.

fibroblasts [4] = experiment: Proliferation of fibroblasts by CyQuant; conditions: for Proliferation MW: untreated control = 100%
Description: Determination of the proliferation of the cultivated cells provides information on the status of the cell division of the treated cells. Both cell division stimulating and cell division inhibiting substances can be defined with this analysis. An outstanding feature during the cell division is the duplication of the DNA. During the new synthesis, nucleotides are built into the newly formed DNA strand. The proliferation can be measured by offering a non-natural nucleotide derivative (bromo deoxy uridine, BrdU) to the cells for the new synthesis; the BrdU can be subsequently detected with specific antibodies. The amount of newly synthesized DNA can be quantified fluorimetrically and provides proportional information on the degree of the cell division process. Proliferation was determined by setting the untreated control to 100% and the measured values of the samples treated with the substances were in reference to that figure. For a relative proliferation of less than 80% the substance effect is said to be inhibitive, for greater than or equal to 120% the substance effect is considered to be stimulative. The CyQuant Assay Cell Proliferation Assay from Molecular Probes was used for this test according to manufacturer's directions.

[5] = system: Keratinocyte Growth Factor (KGF); experiment: KGF release from reconstructed hair follicle models, ELISA
Description: (§2) Both the Hepatocyte Growth Factor (HGF) and Keratinocyte Growth Factor (KGF) are important regulators of the hair cycle. A change in the availability for the substances that regulate the hair cycle in comparison with the untreated controls should be assumed. The release of HGF and KGF can be quantified with the help of commercially available ELISA kits (Quantikine, RnD-Systems, Wiesbaden, Germany). For this, reconstructed hair follicle models, which are described in the European patent 1 455 854, were incubated with the test substances for 72 hours and the concentration of the growth factors in the medium was determined in the described manner. In order to be able to rule out that the described effects could have been caused by unreacted sugar (glucose or lactose), the respective individual components were tested at the highest possible concentration. The quantities of the untreated controls were set to 100% and the quantities of the treated samples were relative to these. The standard deviations were calculated from the three biological approaches.

IL-8 = experiment: Basal release of IL-8 from HaCaT keratinocytes, ELISA; conditions: 0.5%
Description: Measurement of the basal release of IL-8 provides information on the effects of substances on inflammation reactions. IL-8 is a pro-inflammatory cytokine, which plays a central role in the inflammation cascade of the skin. A reduction of the basal release of IL-8 points to potential inflammation inhibiting effects of the studied substances. In order to determine the release of the IL-8, HaCaT keratinocytes were incubated in Hanks medium with glutamax, 5% FCS and antibiotics in 24 well culture vessels. On day 2 after seeding, cells were incubated with the test substances in a concentration of 0.5%. After treatment for 15-20 h the cell culture supernatant was removed and the amount of released IL-8 was quantified by ELISA. The Quantikine IL-8 from RnD-Systems (Wiesbaden, Germany) was used for these analyses. Values illustrated in Table 5 are relative values with respect to the untreated controls from 4 independent experiments.

[6] = system: Hepatocyte Growth Factor (HGF); experiment: HGF release from reconstructed hair follicle models, ELISA
Description: as §2

[7] = 0.40% w/v, 72 hours, untreated = 100%
[8] = reconstructed hair follicle model

SMILES: Cc1c(O)c(=O)ccn1CCCC[C@H](N)C(=O)O [Maltosine (15), maltosine]
- Differential gene expression KGF (Anagen) (KGF; 0.1% (wt. %)): −1.45
- Differential gene expression HGF (Anagen) (HGF; 0.1% (wt. %)): −2.09
- Differential gene expression IGFBP3 (Catagen) (IGFBP3; 0.1% (wt. %)): 7.55
- Differential gene expression TGFβ2 (Catagen) (TGF-beta 2; 0.1% (wt. %)): −2.24
- Differential gene expression TGFβ1 (Catagen) (TGF-beta 1; 0.1% (wt. %)): 3.39
- Gene expression of markers of catagen (in words) [1]: simultaneously increased gene expression of markers of catagen

SMILES: CC1NC(NCCC[C@H](N)C(=O)O)=NC1=O (stereo partly drawn) [Ornithinoimidazolinone (16), ornithinoimidazolinone]
- Differential gene expression KGF (Anagen) (KGF; 0.1% (wt. %)): −1.25
- Differential gene expression HGF (Anagen) (HGF; 0.1% (wt. %)): −3.30
- Differential gene expression IGFBP3 (Catagen) (IGFBP3; 0.1% (wt. %)): −1.60
- Differential gene expression TGFβ2 (Catagen) (TGF-beta 2; 0.1% (wt. %)): −1.66
- Differential gene expression TGFβ1 (Catagen) (TGF-beta 1; 0.1% (wt. %)): 1.08

SMILES: OC[C@H]1O[C@@H](O[C@H]2[C@H](O)[C@@H](O)C(O)O[C@@H]2CO)[C@H](O)[C@@H](O)[C@H]1O (stereo partly drawn) [Lactose, D-(+)-lactose]
- Vitality MW (fibroblasts [2]; 250 μg/ml): 97.5%
- Vitality MW (fibroblasts [2]; 500 μg/ml): 98.6%
- Vitality MW (fibroblasts [2]; 1000 μg/ml): 102.0%
- Vitality MW (fibroblasts [2]; 2000 μg/ml): 116.4%
- Vitality MW (fibroblasts [2]; 4000 μg/ml): 119.8%
- Effect on synthesis rate of ATP (in words) [3]: did not lead at any time and at any concentration to a change
- Effect on cell division activity of fibroblasts (in words) (fibroblasts [4]): No effect could be detected
- Proliferation MW (fibroblasts [4]; 250 μg/ml): 107.2%
- Proliferation MW (fibroblasts [4]; 500 μg/ml): 90.4%
- Proliferation MW (fibroblasts [4]; 1000 μg/ml): 111.7%
- Proliferation MW (fibroblasts [4]; 2000 μg/ml): 107.6%
- Proliferation MW (fibroblasts [4]; 4000 μg/ml): 77.5%
- KGF release MW % [5, 7]: 101.2%
- Effect on KGF release (in words) [5, 8]: distinct effect due to treatment with sugars (lactose and glucose) could not be established
- Effect on basal release of IL-8 (in words) (IL-8): did not lead to a significant change
- HGF release MW % [6, 7]: 65.3%
- Effect on release of HGF (in words) [6, 8]: reduced release of HGF

SMILES: Cc1occc(=O)c1O [Maltol, 3-hydroxy-2-methyl-4H-pyran-4-one]
- Differential gene expression KGF (Anagen) (KGF; 0.01% (wt. %)): −1.87
- Differential gene expression KGF (Anagen) (KGF; 0.025% (wt. %)): −3.02
- Differential gene expression HGF (Anagen) (HGF; 0.01% (wt. %)): −1.23
- Differential gene expression HGF (Anagen) (HGF; 0.025% (wt. %)): 1.07
- Differential gene expression IGFBP3 (Catagen) (IGFBP3; 0.01% (wt. %)): −1.69
- Differential gene expression IGFBP3 (Catagen) (IGFBP3; 0.025% (wt. %)): −3.63
- Differential gene expression TGFβ2 (Catagen) (TGF-beta 2; 0.01% (wt. %)): −1.86
- Differential gene expression TGFβ2 (Catagen) (TGF-beta 2; 0.025% (wt. %)): −3.21
- Differential gene expression TGFβ1 (Catagen) (TGF-beta 1; 0.01% (wt. %)): −1.28
- Differential gene expression TGFβ1 (Catagen) (TGF-beta 1; 0.025% (wt. %)): −1.20

SMILES: O=CC(=O)C[C@H](O)[C@H](O)CO [3-Desoxyglucosulose (18), 3-desoxyglucosulose]
- Differential gene expression KGF (Anagen) (KGF; 0.01% (wt. %)): −1.33
- Differential gene expression KGF (Anagen) (KGF; 0.1% (wt. %)): −1.93
- Differential gene expression HGF (Anagen) (HGF; 0.01% (wt. %)): −2.09
- Differential gene expression HGF (Anagen) (HGF; 0.1% (wt. %)): −1.78
- Differential gene expression IGFBP3 (Catagen) (IGFBP3; 0.01% (wt. %)): −1.20
- Differential gene expression IGFBP3 (Catagen) (IGFBP3; 0.1% (wt. %)): −2.12
- Differential gene expression TGFβ2 (Catagen) (TGF-beta 2; 0.01% (wt. %)): −1.67
- Differential gene expression TGFβ2 (Catagen) (TGF-beta 2; 0.1% (wt. %)): −1.54
- Differential gene expression TGFβ1 (Catagen) (TGF-beta 1; 0.01% (wt. %)): 1.02
- Differential gene expression TGFβ1 (Catagen) (TGF-beta 1; 0.1% (wt. %)): −1.27

SMILES: N[C@@H](CCCCNCC(=O)[C@@H](O)[C@H](O)[C@H](O)CO)C(=O)O [Fructoselysine (12), N-ε-fructosyllysine]
- Differential gene expression KGF (Anagen) (KGF; 0.01% (wt. %)): −1.96
- Differential gene expression KGF (Anagen) (KGF; 0.1% (wt. %)): −2.49
- Differential gene expression HGF (Anagen) (HGF; 0.01% (wt. %)): −1.92
- Differential gene expression HGF (Anagen) (HGF; 0.1% (wt. %)): −1.69
- Differential gene expression IGFBP3 (Catagen) (IGFBP3; 0.01% (wt. %)): −1.44
- Differential gene expression IGFBP3 (Catagen) (IGFBP3; 0.1% (wt. %)): −1.83
- Differential gene expression TGFβ2 (Catagen) (TGF-beta 2; 0.01% (wt. %)): −2.40
- Differential gene expression TGFβ2 (Catagen) (TGF-beta 2; 0.1% (wt. %)): −2.40
- Differential gene expression TGFβ1 (Catagen) (TGF-beta 1; 0.01% (wt. %)): 1.04
- Differential gene expression TGFβ1 (Catagen) (TGF-beta 1; 0.1% (wt. %)): −1.10

SMILES: N[C@@H](CCCCNCC(=O)O)C(=O)O [Carboxymethyllysine (13), N-ε-carboxymethyllysine]
- Differential gene expression KGF (Anagen) (KGF; 0.1% (wt. %)): 1.24
- Differential gene expression HGF (Anagen) (HGF; 0.1% (wt. %)): −1.77
- Differential gene expression IGFBP3 (Catagen) (IGFBP3; 0.1% (wt. %)): 1.98
- Differential gene expression TGFβ2 (Catagen) (TGF-beta 2; 0.1% (wt. %)): −1.07
- Differential gene expression TGFβ1 (Catagen) (TGF-beta 1; 0.1% (wt. %)): 1.35
